Settings: Liquid, Vibrating tube method

CCCCO [butan-1-ol]
Settings	mass density [kg/m3]
293.15 K, 100 kPa	809.5
293.15 K, 10000 kPa	816.4
293.15 K, 20000 kPa	822.9
293.15 K, 30000 kPa	828.9
293.15 K, 40000 kPa	834.5
293.15 K, 50000 kPa	839.8
293.15 K, 60000 kPa	844.7
293.15 K, 70000 kPa	849.6
293.15 K, 80000 kPa	854.2
293.15 K, 90000 kPa	858.5
293.15 K, 100000 kPa	862.9
293.15 K, 110000 kPa	866.7
293.15 K, 120000 kPa	870.8
293.15 K, 130000 kPa	874.4
293.15 K, 140000 kPa	878.1
303.15 K, 100 kPa	802
303.15 K, 10000 kPa	809.4
303.15 K, 20000 kPa	816
303.15 K, 30000 kPa	822.3
303.15 K, 40000 kPa	828
303.15 K, 50000 kPa	833.6
303.15 K, 60000 kPa	838.7
303.15 K, 70000 kPa	843.6
303.15 K, 80000 kPa	848.3
303.15 K, 90000 kPa	852.7
303.15 K, 100000 kPa	857
303.15 K, 110000 kPa	861.2
303.15 K, 120000 kPa	865
303.15 K, 130000 kPa	868.9
303.15 K, 140000 kPa	872.6
313.15 K, 100 kPa	794.1
313.15 K, 10000 kPa	801.6
313.15 K, 20000 kPa	809.1
313.15 K, 30000 kPa	815.4
313.15 K, 40000 kPa	821.4
313.15 K, 50000 kPa	827.2
313.15 K, 60000 kPa	832.6
313.15 K, 70000 kPa	837.8
313.15 K, 80000 kPa	842.6
313.15 K, 90000 kPa	847.3
313.15 K, 100000 kPa	851.6
313.15 K, 110000 kPa	856
313.15 K, 120000 kPa	860.1
313.15 K, 130000 kPa	864
313.15 K, 140000 kPa	867.9
323.15 K, 100 kPa	786.5
323.15 K, 10000 kPa	794.5
323.15 K, 20000 kPa	801.7
323.15 K, 30000 kPa	808.5
323.15 K, 40000 kPa	815
323.15 K, 50000 kPa	821
323.15 K, 60000 kPa	826.5
323.15 K, 70000 kPa	831.5
323.15 K, 80000 kPa	836.3
323.15 K, 90000 kPa	841.1
323.15 K, 100000 kPa	845.8
323.15 K, 110000 kPa	850.1
323.15 K, 120000 kPa	854.3
323.15 K, 130000 kPa	858.3
323.15 K, 140000 kPa	862.1
333.15 K, 100 kPa	778.3
333.15 K, 10000 kPa	786.8
333.15 K, 20000 kPa	794.6
333.15 K, 30000 kPa	801.7
333.15 K, 40000 kPa	808.4
333.15 K, 50000 kPa	814.6
333.15 K, 60000 kPa	820.3
333.15 K, 70000 kPa	825.6
333.15 K, 80000 kPa	830.8
333.15 K, 90000 kPa	836
333.15 K, 100000 kPa	840.5
333.15 K, 110000 kPa	844.9
333.15 K, 120000 kPa	849
333.15 K, 130000 kPa	853.2
333.15 K, 140000 kPa	857
343.15 K, 100 kPa	769.9
343.15 K, 10000 kPa	779
343.15 K, 20000 kPa	787.1
343.15 K, 30000 kPa	794.4
343.15 K, 40000 kPa	801.3
343.15 K, 50000 kPa	807.8
343.15 K, 60000 kPa	813.6
343.15 K, 70000 kPa	819.3
343.15 K, 80000 kPa	824.6
343.15 K, 90000 kPa	829.5
343.15 K, 100000 kPa	834.4
343.15 K, 110000 kPa	838.9
343.15 K, 120000 kPa	843.3
343.15 K, 130000 kPa	847.5
343.15 K, 140000 kPa	851.6
353.15 K, 100 kPa	760.9
353.15 K, 10000 kPa	770.6
353.15 K, 20000 kPa	779.2
353.15 K, 30000 kPa	787.1
353.15 K, 40000 kPa	794.3
353.15 K, 50000 kPa	800.9
353.15 K, 60000 kPa	807.7
353.15 K, 70000 kPa	813.2
353.15 K, 80000 kPa	818.9
353.15 K, 90000 kPa	823.9
353.15 K, 100000 kPa	828.8
353.15 K, 110000 kPa	833.5
353.15 K, 120000 kPa	838.1
353.15 K, 130000 kPa	842.1
353.15 K, 140000 kPa	846.5
363.15 K, 100 kPa	751.9
363.15 K, 10000 kPa	762.6
363.15 K, 20000 kPa	771.7
363.15 K, 30000 kPa	780.1
363.15 K, 40000 kPa	787.4
363.15 K, 50000 kPa	794.3
363.15 K, 60000 kPa	800.9
363.15 K, 70000 kPa	807
363.15 K, 80000 kPa	812.5
363.15 K, 90000 kPa	817.9
363.15 K, 100000 kPa	822.9
363.15 K, 110000 kPa	827.7
363.15 K, 120000 kPa	832.4
363.15 K, 130000 kPa	836.8
363.15 K, 140000 kPa	841
373.15 K, 100 kPa	742.4
373.15 K, 10000 kPa	753.4
373.15 K, 20000 kPa	763.3
373.15 K, 30000 kPa	772.2
373.15 K, 40000 kPa	780
373.15 K, 50000 kPa	787.2
373.15 K, 60000 kPa	793.8
373.15 K, 70000 kPa	800.2
373.15 K, 80000 kPa	805.8
373.15 K, 90000 kPa	811.5
373.15 K, 100000 kPa	817
373.15 K, 110000 kPa	821.9
373.15 K, 120000 kPa	826.3
373.15 K, 130000 kPa	831
373.15 K, 140000 kPa	835.3
383.15 K, 100 kPa	732.2
383.15 K, 10000 kPa	744.7
383.15 K, 20000 kPa	754.6
383.15 K, 30000 kPa	764.3
383.15 K, 40000 kPa	772.2
383.15 K, 50000 kPa	779.6
383.15 K, 60000 kPa	786.6
383.15 K, 70000 kPa	793.2
383.15 K, 80000 kPa	799.1
383.15 K, 90000 kPa	804.9
383.15 K, 100000 kPa	810.3
383.15 K, 110000 kPa	815.4
383.15 K, 120000 kPa	820.4
383.15 K, 130000 kPa	825
383.15 K, 140000 kPa	829.6
393.15 K, 10000 kPa	735.3
393.15 K, 20000 kPa	746.4
393.15 K, 30000 kPa	755.9
393.15 K, 40000 kPa	764.9
393.15 K, 50000 kPa	772.3
393.15 K, 60000 kPa	779.6
393.15 K, 70000 kPa	786.3
393.15 K, 80000 kPa	792.8
393.15 K, 90000 kPa	798.8
393.15 K, 100000 kPa	804.3
393.15 K, 110000 kPa	809.7
393.15 K, 120000 kPa	814.7
393.15 K, 130000 kPa	819.3
393.15 K, 140000 kPa	823.9
403.15 K, 10000 kPa	725.6
403.15 K, 20000 kPa	737.3
403.15 K, 30000 kPa	747.7
403.15 K, 40000 kPa	756.9
403.15 K, 50000 kPa	765.4
403.15 K, 60000 kPa	772.8
403.15 K, 70000 kPa	779.9
403.15 K, 80000 kPa	786.5
403.15 K, 90000 kPa	792.6
403.15 K, 100000 kPa	798.5
403.15 K, 110000 kPa	803.9
403.15 K, 120000 kPa	809.1
403.15 K, 130000 kPa	814.1
403.15 K, 140000 kPa	819.3
